Laboratory results published in the NIST ThermoML archive (doi:10.1021/je5007696).
Several values for one entry are separate records, joined by “and”; a condition that tells them apart may be missing. Identical values can stand only once.

Assays:
[1] = Liquid; for viscosity: Concentric cylinders viscometry; for mass density: Vibrating tube method
[2] = refractive index (Na D-line) (dimensionless); details: 101.33 kPa, Liquid, Standard Abbe refractometry
[3] = xn = mol fraction of the nth substance listed; details: 100 kPa, Liquid, Concentric cylinders viscometry, x2 = 0

CCC(C)=O [butanone]
[1], 100 kPa
Details	mass density [kg/m3]	viscosity
288.15 K	810.133	0.4306 mPa·s and 0.4306 mPa·s
293.15 K	804.926	0.4136 mPa·s and 0.4136 mPa·s
298.15 K	799.695	0.3962 mPa·s and 0.3962 mPa·s
303.15 K	794.435	0.3793 mPa·s and 0.3793 mPa·s
308.15 K	789.142	0.3626 mPa·s and 0.3626 mPa·s
313.15 K	783.814	0.3461 mPa·s and 0.3461 mPa·s
318.15 K	778.451	0.3303 mPa·s and 0.3303 mPa·s
323.15 K	773.047	0.3168 mPa·s and 0.3167 mPa·s

[2]
Details	refractive index
288.15 K	1.38153
293.15 K	1.37892
298.15 K	1.37631
303.15 K	1.37366
308.15 K	1.37102
313.15 K	1.36834
318.15 K	1.36565
323.15 K	1.36294

CCC(C)=O [butanone] + COC(=O)CCCCC(=O)OC
[3]
Details	viscosity [mPa·s]
288.15 K	0.4306
293.15 K	0.4136
298.15 K	0.3962
303.15 K	0.3793
308.15 K	0.3626
313.15 K	0.3461
318.15 K	0.3303
323.15 K	0.3167

COC(=O)CCCCC(=O)OC [dimethyl 1,6-hexanedioate]
[1]
Details	mass density, 293.15 K [kg/m3]	viscosity, 288.15 K [mPa·s]	viscosity, 293.15 K [mPa·s]	viscosity, 298.15 K [mPa·s]	viscosity, 303.15 K [mPa·s]	viscosity, 308.15 K [mPa·s]	viscosity, 313.15 K [mPa·s]	viscosity, 318.15 K [mPa·s]	viscosity, 323.15 K [mPa·s]
100 kPa	–	3.751	3.289	2.91	2.604	2.342	2.121	1.933	1.79
101.33 kPa	1061.93	–	–	–	–	–	–	–	–

Details	refractive index
[2], 298.15 K	1.4264
